How the values were obtained:
CD41+ and CD41− cells = experiment: Label-free MS quantitation of cytoskeletal proteome; type: cell-based, human
Procedure: BM CD34^+-derived cells at day 7 were stained with CD41-FITC at room temperature for 1 h, followed by with Annexin-V-PE (BD Biosciences) in the Annexin-V staining medium for 15 min. Cells were then resuspended in 2% FBS/PBS with 7-AAD. Viable HSC-containing cell populations and differentiated MK lineages at day 7 in culture were separated on the basis of CD41 surface expression by cell sorting performed on a FACS Vantage machine (Becton Dickinson). Dead cells stained with 7-AAD and Annexin-V were excluded from sorting. Sorted cells were directly processed for mass spectrometry (MS) analyses (FIG. 5).
Samples were prepared for mass spectrometry by gel-free (Wiśniewski et al., 2009, Nat Methods, 6:359-362) or in-gel digestion methods. […] Label-free relative peptide quantitation was performed on proportional peak fingerprints (ProPF) of proteins with in-house software coded in Mathematica (Wolfram Research). […] Proteomes from primary MKs were analyzed using this unique method and a selected group of proteins were validated by antibodies (FIG. 13D). COS cells transfected with GFP-NMM-IIA and siRNA […] knockdown were also analyzed by the method, and show increased NMM-IIA expression by 17-fold and partial knockdown (˜40%) of NMM-IIA compared with cells transfected with GFP and scrambled siRNA. There was minimal perturbation to other proteins detected.

[1] = tested on: SCID-repopulating cells in NSG mice; experiment: Engraftment in NSG mice and limiting dilution analysis; conditions: mouse, in vivo
Procedure: BM-derived CD34^+ cells were cultured in SCF and Tpo (100 ng/ml each) for 4 days and treated under control conditions or Bleb (20 μM) for 3 days. The cells were injected intra-tibially into sub-lethally irradiated (250 rads) 6-10-week-old NSG mice within 24 hr after irradiation. Engraftment was assessed by analysis of blood or bone marrow using anti-mouse and anti-human CD47 antibodies using flow cytometry. The mice were sacrificed after sixteen weeks post-transplantation. For secondary engraftment, 50% of the bone marrow from femurs and tibias from each mouse was transplanted into one sub-lethally irradiated NSG mouse. 16 weeks after transplantation, blood and bone marrow were harvested from the mice and analyzed by flow cytometry. All animal experiments were done in accordance with institutional guidelines approved by the ethical committee from the University of Pennsylvania. The human repopulation HSC frequency was quantified by extreme limiting dilution analysis (ELDA) software (Hu and Smyth, 2009)

[2] = tested on: BM CD34+-derived cells (CD41+ MK); experiment: Ploidy analysis of CD34+-derived cells treated with contractility inhibitors (flow cytometry); type: cell-based, human; conditions: for maximal polyploid cell number: scaled to 10,000 initial cell input
Procedure: Fresh purified bone marrow (BM)-derived humanCD34^+ cells were obtained from either the Penn Xenograft Core Facility or AllCells. Cells from at least 10 different donors were used in this study. Purity of the samples (>98%) was confirmed by flow cytometry with monoclonal antibody against human CD34 conjugated to phycoerythrin (PE). All experiments were performed in hematopoietic stem cell (HSC) expansion media (StemLine-II; Sigma) supplemented with 1× antibiotics, and the following human recombinant cytokines SCF (100 ng/mL) and Tpo (100 ng/mL). In some occasions, the media was also supplemented by G-CSF (100 ng/mL). All cytokines were purchased from R&D Systems. After cells were cultured for 4 days, they were treated with different doses of cellular contractility inhibitors, including (±)-blebbistatin (EMDBiosciences), reversine, ML-7, and Y-27632 (Sigma) for indicated durations of up to 3 days. Unfortunately, longer exposure to drug proves toxic even to polyploidy cells under the present culture conditions. Cells were then resuspended in PBS/2% FBS medium and subjected to ploidy analysis: cells were stained with CD41-FITC (BD Biosciences) at room temperature for 30 min, followed by Hoechst 33342 at 37° C. for 30 min. Then cells were stained with Annexin-V-PE (BD Biosciences) in the Annexin-V staining medium, followed by addition of 7-AAD. Stained cells were subjected to flow cytometric analysis (LSR-II; BD Biosciences): only viable cells (7-AAD^− and Hoechst 33342^+) were analyzed for ploidy. Cells with the DNA content of 8 N or higher were considered polyploid. To quantify absolute number of polyploid cells, viable cell number was counted before flow cytometry by Trypan blue exclusion, and this number was multiplied by percentages of each DNA compartment and subpopulations. Each multiplied number was then normalized by initial cell input number before drug treatment in culture.

In the case of `Cc1ccc2c(c1)C(=O)C1(O)CCN(c3ccccc3)C1=N2` (racemic) [blebbistatin, (±)-blebbistatin], the detected proteins up-regulated (CD41+ and CD41− cells; CD41+ cells, treated samples) is reported as 75%, the “indicated proteins with increased expression” value (CD41+ and CD41− cells; CD41− cells, 3 d treatment) is reported as 20% and the “increase in HSC frequency in terms of total cell number injected” value [1] is reported as 4 fold. The “drug dose found to be toxic” value [2] was roughly 100 µM, the “enrichment of mature polyploid MKs” value [2] was roughly 10 folds and the “doubling time of polyploid cell generation” value ([2]; 20 μM) was 18.2 h. The Ki ([2]; MK polyploidization / progenitor depletion in cells, read-out: inhibition constant Ki) was roughly 7.6 µM, the “maximal polyploid cell number” value ([2]; SCF+Tpo CD41+) was 278 and the “maximal polyploid cell number” value ([2]; SCF+Tpo CD41−) was 1. The “maximal polyploid cell number” value ([2]; SCF+Tpo+G-CSF CD41+) was 141, the “maximal polyploid cell number” value ([2]; SCF+Tpo+G-CSF CD41−) was 352 and the EC50 ([2]; dose-response, n≥3 donors, read-out: MK polyploid cell number EC50) was 7.6 µM. It also gave an IC50 ([2]; treatment for 3 d, with or without G-CSF, read-out: CD41+ MK and non-MK polyploid cell number IC50) of 7.6 µM.

Reference: US9920295B2, “Bioreactor for isolation of rare cells and methods of use” (The Trustees of the University of Pennsylvania, priority 2012, dated 2018)
